Test results from US20070072246A1, “Cell-based assays for determining drug action” (priority 2003, published 2007).

tested on: PBMC and endothelial cell co-culture; experiment: SAg system: PBMC and endothelial cell co-culture stimulated with superantigen; assay type: cell-based, human; details: not given

Molecule	activity in the SAg system
Cc1ccc(-c2nn(C(C)(C)C)c3ncnc(N)c23)cc1 [PP1]	active
CC(C)(C)n1nc(-c2ccc(Cl)cc2)c2c(N)ncnc21 [PP2]	active
IL-1 receptor antagonist: Recombinant human IL-1ra	detects inhibition
IL-10: Recombinant human IL-10 (protein, UniProt P22301 19-178, looked up) Interleukin-10: SPGQGTQSENSCTHFPGNLPNMLRDLRDAFSRVKTFFQMKDQLDNLLLKESLLEDFKGYLGCQALSEMIQFYLEEVMPQAENQDPDIKAHVNSLGENLKTLRLRLRRCHRFLPCENKSKAVEQVKNAFNKLQEKGIYKAMSEFDIFINYIEAYMTMKIRN	active

same assay, conditions: 24 hr SAg stimulation; non-toxic concentrations

Molecule	activity in the SAg system
CCCCOc1cc(CC2CNC(=O)N2)ccc1OC (stereo not drawn) [Ro-20-1274]	active
Nc1nccc(-c2c(-c3ccc(F)cc3)ncn2C2CCNCC2)n1 [SB220025]	retain activity
COc1cc2ncnc(Nc3ccc(O)cc3)c2cc1OC [WHI-P131]	active
CC(C)N(CCC(=O)c1ccc2ccccc2c1)Cc1ccccc1 [ZM39923]	active
CO[C@H]1C[C@@H]2CC[C@@H](C)[C@@](O)(O2)C(=O)C(=O)N2CCCC[C@H]2C(=O)O[C@H]([C@H](C)C[C@@H]2CC[C@@H](O)[C@H](OC)C2)CC(=O)[C@H](C)/C=C(\C)[C@@H](O)[C@@H](OC)C(=O)[C@H](C)C[C@H](C)/C=C/C=C/C=C/1C [rapamycin]	active
COc1ccc(C2CNC(=O)C2)cc1OC1CCCC1 (stereo not drawn) [rolipram]	active

tested on: primary human endothelial cells (EC); experiment: 3C system: endothelial cells stimulated with IL-1β, TNF-α and IFN-γ, readout parameters by cell-based ELISA; details: 24 hr cytokine activation; non-toxic concentrations
Protocol: Cell culture. Human umbilical vein endothelial cells (HUVEC) were obtained from Cascade Biologics (Portland, Oreg.) and cultured in EGM-2 medium containing supplements provided by the manufacturer and 2% heat inactivated fetal bovine serum (Hyclone, Logan, Utah) and subcultured with 0.05% trypsin-0.53 mM EDTA (Mediatech, Herndon, Va.) as described by the manufacturer. […] Experiments were performed by culturing HUVEC in microtiter plates (Falcon; BD Biosciences), in the presence of cytokines (IL-1β, 1 ng/ml; TNF-α, 5 ng/ml; and IFN-γ, 100 ng/ml), activators (SAg, 20 ng/ml or LPS, 0.2 ng/ml), and/or PBMC (7.5×10^4) for the indicated times. Drugs were added 1 hr before stimulation and were present during the whole 24 hr stimulation period.
Cell-based ELISAs. […] Briefly, microtiter plates containing treated and stimulated HUVEC (or HUVEC/PBMC) were blocked, and then incubated with primary antibodies or isotype control antibodies (0.01-0.5 μg/ml) for 1 hr. […] Plates were washed and developed with TMB substrate (Clinical Science Products, Mansfield, Mass.) and the absorbance (OD) was read at 450 nm (subtracting the background absorbance at 650 nm) with a Molecular Devices SpectraMAX 190 plate reader (Molecular Devices, Sunnyvale, Calif.).
Data analysis. Mean OD values for each parameter were calculated from triplicate samples per experiment. […]

Molecule	activity in the 3C (endothelial inflammation) system
COc1cccc(-c2cc(=O)c3ccccc3o2)c1N [PD098059]	induces a characteristic response profile
O=c1cc(-c2ccc(O)cc2)oc2cc(O)cc(O)c12 [apigenin]	induces a characteristic response profile
